Results taken from patent US10925283B2, “Microbiocidal phenylamidine derivatives” (SYNGENTA PARTICIPATIONS AG, priority 2016, dated 2021).

Assays:
[1] = test system: Puccinia recondita f. sp. tritici; assay: Puccinia recondita f. sp. tritici / wheat / leaf disc preventative (brown rust); type: in vivo; settings: foliar, wheat leaf segments cv. Kanzler, inoculated 1 day after application, assessed 7-9 days after application, read-out: control of Puccinia recondita f. sp. tritici (percent disease control compared to untreated)
Procedure, shortened: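 Leaf segments of wheat cv. Kanzler on agar were sprayed with diluted formulated compound and inoculated with spores 1 day later. Kept at 19° C, 75% rh, 12 h light/12 h dark. Percent disease control versus untreated assessed 7-9 days after application.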

[2] = test system: Blumeria graminis f. sp. tritici (Erysiphe graminis f. sp. tritici); assay: Blumeria graminis f. sp. tritici / wheat / leaf disc preventative (powdery mildew on wheat); type: in vivo; settings: foliar, wheat leaf segments cv. Kanzler, inoculated 1 day after application, assessed 6-8 days after application, read-out: control of Blumeria graminis f. sp. tritici (percent disease control compared to untreated)
Procedure, shortened: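 Wheat cv. Kanzler leaf segments on agar were sprayed with formulated compound in water, then inoculated with powdery mildew 1 day after application. Incubation was at 20° C, 60% rh, 24 h dark then 12 h light/12 h dark. Percent disease control versus untreated was scored 6-8 days after application.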

[3] = test system: Puccinia recondita f. sp. tritici; assay: Puccinia recondita f. sp. tritici / wheat / leaf disc curative (brown rust); type: in vivo; settings: foliar, wheat leaf segments cv. Kanzler, compound applied 1 day after inoculation, assessed 6-8 days after application, read-out: control of Puccinia recondita f. sp. tritici (percent disease control compared to untreated)
Procedure, shortened: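 Curative test: leaf segments of wheat cv. Kanzler on agar were inoculated with spores and held dark at 19 °C, 75% rh; formulated compound in water was applied 1 day after inoculation. Segments were then kept at 19 °C, 75% rh under 12 h light/12 h dark, and percent disease control versus untreated was scored 6-8 days after application.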

[4] = test system: Phakopsora pachyrhizi; assay: Phakopsora pachyrhizi / soybean / preventative (soybean rust); type: in vivo; settings: foliar, soybean leaf disks, inoculated one day after application, assessed 12-14 days after application, read-out: control of Phakopsora pachyrhizi (percent disease control compared to untreated)
Procedure: Phakopsora pachyrhizi/Soybean/Preventative (Soybean Rust) Soybean leaf disks are placed on water agar in multiwell plates (24-well format) and sprayed with the formulated test compound diluted in water. One day after application leaf discs are inoculated by spraying a spore suspension on the lower leaf surface. After an incubation period in a climate cabinet of 24-36 hours in darkness at 20° C. and 75% rh leaf disc are kept at 20° C. with 12 h light/day and 75% rh. The activity of a compound is assessed as percent disease control compared to untreated when an appropriate level of disease damage appears in untreated check leaf disks (12-14 days after application).

Structure (SMILES)	pest or weed control at 200 ppm [1] [%]	melting point [°C]	pest or weed control at 200 ppm [2] [%]	pest or weed control at 200 ppm [3] [%]	pest or weed control at 200 ppm [4] [%]
CCN(C)/C=N/c1cc(OC)c(C(O)(CS(=O)(=O)c2ccccc2)C(F)(F)F)cc1C (stereo not shown) [E.065, N′-[4-[1-(benzenesulfonylmethyl)-2,2,2-trifluoro-1-hydroxy-ethyl]-5-methoxy-2-methyl-phenyl]-N-ethyl-N-methyl-formamidine]	≥ 80	103 to 105	≥ 80	≥ 80	–
CCN(C)/C=N/c1cc(OC)c(C(O)(CS(=O)(=O)Cc2ccccc2)C(F)(F)F)cc1C (stereo not shown) [E.064, N′-[4-[1-(benzylsulfonylmethyl)-2,2,2-trifluoro-1-hydroxy-ethyl]-5-methoxy-2-methyl-phenyl]-N-ethyl-N-methyl-formamidine]	≥ 80	56 to 58	≥ 80	≥ 80	–
CCN(C)/C=N/c1cc(OC)c(C(O)(C2=COCCC2)C(F)(F)F)cc1C (stereo not shown) [E.074, N′-[4-[1-(3,4-dihydro-2H-pyran-5-yl)-2,2,2-trifluoro-1-hydroxy-ethyl]-5-methoxy-2-methyl-phenyl]-N-ethyl-N-methyl-formamidine]	≥ 80	115 to 116.6	≥ 80	≥ 80	–
CCN(C)C=Nc1cc(OC)c(C(O)(C/C(=N/OC)c2ccccc2)C(F)(F)F)cc1C (stereo not shown) [E.059, N-ethyl-N′-[4-[(3Z)-1-hydroxy-3-methoxyimino-3-phenyl-1-(trifluoromethyl)propyl]-5-methoxy-2-methyl-phenyl]-N-methyl-formamidine]	≥ 80	105 to 107	≥ 80	≥ 80	≥ 80
CCSCC(O)(c1cc(C)c(/N=C/N(C)CC)cc1OC)C(F)(F)F (stereo not shown) [E.073, N-ethyl-N′-[4-[1-(ethylsulfanylmethyl)-2,2,2-trifluoro-1-hydroxy-ethyl]-5-methoxy-2-methyl-phenyl]-N-methyl-formamidine]	≥ 80	81 to 83	≥ 80	–	–
CCN(C)/C=N/c1cc(OC)c(C(O)(CC#N)C(F)(F)F)cc1C (stereo not shown) [E.061, N′-[4-[1-(cyanomethyl)-2,2,2-trifluoro-1-hydroxy-ethyl]-5-methoxy-2-methyl-phenyl]-N-ethyl-N-methyl-formamidine]	≥ 80	86 to 88	≥ 80	≥ 80	–
CCN(C)/C=N/c1cc(OC)c(C(O)(C(F)(F)F)C(C)(C)C#N)cc1C (stereo not shown) [E.060, N′-[4-[2-cyano-1-hydroxy-2-methyl-1-(trifluoromethyl)propyl]-5-methoxy-2-methyl-phenyl]-N-ethyl-N-methyl-formamidine]	≥ 80	90 to 93	≥ 80	≥ 80	≥ 80
CCN(C)/C=N/c1cc(OC)c(C(O)(COCC2CCC2)C(F)(F)F)cc1C (stereo not shown) [E.011, N′-[4-[1-(cyclobutylmethoxymethyl)-2,2,2-trifluoro-1-hydroxy-ethyl]-5-methoxy-2-methyl-phenyl]-N-ethyl-N-methyl-formamidine]	≥ 80	–	≥ 80	≥ 80	≥ 80
CCO/N=C(\C)CC(O)(c1cc(C)c(/N=C/N(C)CC)cc1OC)C(F)(F)F (stereo not shown) [E.057, N′-[4-[(3E)-3-ethoxyimino-1-hydroxy-1-(trifluoromethyl)butyl]-5-methoxy-2-methyl-phenyl]-N-ethyl-N-methyl-formamidine]	≥ 80	–	≥ 80	≥ 80	≥ 80
CCN(C)/C=N/c1cc(OC)c(C(O)(C2CCC(OC(C)C)CC2)C(F)(F)F)cc1C (stereo not shown) [E.078, N-ethyl-N′-[5-methoxy-2-methyl-4-[2,2,2-trifluoro-1-hydroxy-1-(4-isopropoxycyclohexyl)ethyl]phenyl]-N-methyl-formamidine]	≥ 80	–	≥ 80	≥ 80	≥ 80
C#CCOCC(O)(c1cc(C)c(/N=C/N(C)CC)cc1OC)C(F)(F)F (stereo not shown) [E.041, N-ethyl-N′-[5-methoxy-2-methyl-4-[2,2,2-trifluoro-1-hydroxy-1-(prop-2-ynoxymethyl)ethyl]phenyl]-N-methyl-formamidine]	≥ 80	–	≥ 80	≥ 80	≥ 80
CCN(C)/C=N/c1cc(OC)c(C(O)(CCOCc2ccccc2)C(F)(F)F)cc1C (stereo not shown) [E.051, N′-[4-[3-benzyloxy-1-hydroxy-1-(trifluoromethyl)propyl]-5-methoxy-2-methyl-phenyl]-N-ethyl-N-methyl-formamidine]	≥ 80	–	≥ 80	≥ 80	≥ 80
CCOCC(O)(c1cc(C)c(/N=C/N(C)CC)cc1OC)C(F)(F)F (stereo not shown) [E.002, N′-[4-[1-(ethoxymethyl)-2,2,2-trifluoro-1-hydroxy-ethyl]-5-methoxy-2-methyl-phenyl]-N-ethyl-N-methyl-formamidine]	≥ 80	–	≥ 80	≥ 80	≥ 80
CCN(C)/C=N/c1cc(OC)c(C(O)(CON=C2CCCCC2)C(F)(F)F)cc1C (stereo not shown) [E.037, N′-[4-[1-[(cyclohexylideneamino)oxymethyl]-2,2,2-trifluoro-1-hydroxy-ethyl]-5-methoxy-2-methyl-phenyl]-N-ethyl-N-methyl-formamidine]	≥ 80	–	≥ 80	≥ 80	≥ 80
CCN(C)/C=N/c1cc(OC)c(C(O)(C2CCC(OC)CC2)C(F)(F)F)cc1C (stereo not shown) [E.075, N-ethyl-N′-[5-methoxy-2-methyl-4-[2,2,2-trifluoro-1-hydroxy-1-(4-methoxycyclohexyl)ethyl]phenyl]-N-methyl-formamidine]	≥ 80	–	≥ 80	≥ 80	≥ 80
